Here are results for one compound from article PMC8001472, “Novel Selective IDO1 Inhibitors with Isoxazolo[5,4-d]pyrimidin-4(5H)-one Scaffold” (Pharmaceuticals, 2021).

One experiment has as its target T1, hTDO (Homo sapiens, UniProt P48775).
T1 construct: purchased Vinci-Biochem
Kind of experiment: hTDO inhibitory potency evaluation (fluorescence assay). The format is biochemical. How it is done:
Additionally, to determine IDO1 selectivity, all final compounds were assayed for their inhibitory potencies towards hIDO2 and hTDO. For this purpose, two new protocols were developed based on the published fluorescence assay for hIDO1 [25]. Sodium ascorbate, methylene blue, and bovine catalase were used in the same concentrations as for hIDO1. 50 mM phosphate buffers with pH values of 7.5 and 7.0 were used for hIDO2 and hTDO, respectively, as has been already mentioned before. First, the activities of hIDO2 and hTDO were determined at four different concentrations. […] Additionally, the effect of DMSO concentration on enzyme activity was investigated. […] The optimal hIDO2 and hTDO assay concentrations of the substrate L-Trp were determined to be 4 mM and 500 μM, respectively.
The activity of the compounds on hTDO was determined according to the previously reported fluorescence protocol for hIDO1 [25] and reported absorbance protocols for hTDO [30] with several modifications. Recombinant hTDO was purchased from Vinci-Biochem (Vinci-Biochem, Vinci, Italy), bovine catalase was purchased from Sigma-Aldrich (Sigma-Aldrich, St. Louis, MO, USA). Prior to the measurement of activity for compounds, the enzyme activity was determined, and optimal assay enzyme concentration was selected. The amounts of reagents needed to perform the assay were optimized. Briefly, the reagents needed were dissolved in 50 mM potassium phosphate buffer (pH 7.0, 0.01%, v/v Tween 20), the reaction was performed in black 384-well microplates. After the addition of 1 μL of 100 mM sodium ascorbate neutralized with equimolar amount of 1 M NaOH, 1 μL of 100 μM methylene blue, 1 μL of 1 mg/mL bovine catalase, 0.5 μL of DMSO (negative control) or solution of a compound, 5 μL of 300 nM hTDO and 1.5 μL of 3.3 mM L-Trp were added and the microplate was incubated for 60 min at 37 °C. The reaction was quenched with the addition of 10 μL of 400 mM piperidine solution in MilliQ water and the formation of the examined fluorophore began following incubation at 65 °C for 20 min. The production of NFK-derived fluorophore (λEX = 400 nm, λEM = 500 nm) was measured using a microplate reader (Synergy H4; BioTek Instruments, Inc., Winooski, VT, USA) after 60 min post-incubation at room temperature. In the preliminary testing compounds were tested at 100 μM with activities determined as residual activities—RA, which were calculated to% of inhibition, presented in Table 1 and Table 2 (% of inhibition = 100% − RA). All determinations were carried out in duplicates.

Another experiment deals with IDO1 (Homo sapiens, UniProt P14902). Description: hIDO1 inhibitory potency evaluation (fluorescence assay, NFK-derived fluorophore). The format is biochemical. Details: gene encoding human IDO1 residues 6-403 His-tagged at the N-terminus; His tag (N); made in house; host or cells: Escherichia coli NiCo21.
Chain of IDO1 (P14902 6-403): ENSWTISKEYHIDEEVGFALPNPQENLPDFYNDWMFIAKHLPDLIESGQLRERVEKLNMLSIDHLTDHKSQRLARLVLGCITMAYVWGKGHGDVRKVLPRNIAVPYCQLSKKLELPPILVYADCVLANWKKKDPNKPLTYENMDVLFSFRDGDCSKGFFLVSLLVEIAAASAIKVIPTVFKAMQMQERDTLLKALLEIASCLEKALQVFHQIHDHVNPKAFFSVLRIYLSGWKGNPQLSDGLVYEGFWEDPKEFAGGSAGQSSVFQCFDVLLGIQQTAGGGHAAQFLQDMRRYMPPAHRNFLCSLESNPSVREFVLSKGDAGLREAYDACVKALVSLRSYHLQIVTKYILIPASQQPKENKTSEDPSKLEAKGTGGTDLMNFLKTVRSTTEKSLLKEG

T1 sequence (P48775 whole entry): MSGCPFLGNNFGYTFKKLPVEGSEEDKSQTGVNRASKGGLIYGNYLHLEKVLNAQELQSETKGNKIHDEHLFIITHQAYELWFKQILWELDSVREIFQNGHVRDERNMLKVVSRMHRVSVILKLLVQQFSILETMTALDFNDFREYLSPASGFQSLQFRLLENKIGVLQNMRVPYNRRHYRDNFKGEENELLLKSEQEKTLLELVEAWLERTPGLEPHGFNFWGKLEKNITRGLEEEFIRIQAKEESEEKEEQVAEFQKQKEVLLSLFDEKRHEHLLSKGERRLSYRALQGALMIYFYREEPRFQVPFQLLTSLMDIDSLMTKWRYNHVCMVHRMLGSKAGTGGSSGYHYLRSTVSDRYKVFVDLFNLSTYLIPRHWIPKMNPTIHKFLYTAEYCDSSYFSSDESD

Take `O=C(Cn1cnc2onc(-c3ccc(F)cc3)c2c1=O)Nc1ccc(C(F)(F)F)cc1` [Compound 23]: the “hTDO inhibition (in words)” value at hTDO is “no activity”. In addition, the “hIDO1 inhibition (in words)” value on IDO1 was “low micromolar range”. In addition, the IC50 at IDO1 (recombinant hIDO1, mean ± SD of at least two independent determinations, read-out: IDO1 IC50) is 23 µM.

The IC50 is the midpoint of a concentration-inhibition curve.
